{"source": "patent EP2664619B1", "about": "“Purine derivatives as tools for screening anti-Alzheimer compounds” (Manros Therapeutics, priority 2012, dated 2013)", "key": {"Aβ38 [1]": {"tested_on": "Aβ38", "experiment": "Effect of γ-secretase inhibitors/modulator on Aβ38 level in Aftin-treated cells", "assay_type": "cell-based", "conditions": "for IC50: γ-secretase inhibitor, Aftin-treated cells", "description": "(§1) To investigate the importance of γ-secretases in the effects of Aftins according to the invention, two potent pharmacological inhibitors of γ-secretases, DAPT (N-[(3,5-Difluorophenyl)acetyl]-L-alanyl-2-phenyl]glycine-1,1-dimethylethyl ester) and BMS 299897 were used."}, "Aβ42": {"tested_on": "Aβ42", "experiment": "Effect of γ-secretase inhibitors/modulator on Aftin-induced production of Aβ42", "assay_type": "cell-based", "conditions": "for IC50: γ-secretase inhibitor, Aftin-induced production", "description": "as §1"}, "Aβ40 [2]": {"tested_on": "Aβ40", "experiment": "Sandwich ELISA measurement of Aβ40 levels in supernatant of treated N2a-APP695 cells", "assay_type": "cell-based, Mouse", "description": "(§2) Mouse neuroblastoma cells (N2a cells) or N2a-APP695 cells (N2a cell line stably transfected with APP695, an amyloid precursor protein) were cultured in an essential medium composed of Dulbecco's minimal essential medium (DMEM) and of OptiMEM® (1:1, v/v) (Gibco®) containing 0.2 mg/mL Geniticin (Geneticin® Selective Antibiotic, Gibco®) and 5 % fetal bovine serum (FBS, Gibco®, EU approved origin) in a humidified, 5% CO2 incubator at 37°C. Routinely, cells were split without use of Trypsin every 4/5 days. They were first rinsed with PBS (Gibco) and detached from the plate bottom using 4 mL Versene (Gibco) at room temperature for 3-4 min. […]\n(§3) The N2a-APP695 cells were seeded at 10.000 cells/well in a 96 well plate with modified media (0.5% FBS) and incubated overnight. Cells were treated with fresh media comprising different compounds according to the invention (equal quantity of DMSO sold by Sigma®). […]\n(§4) Then, Aβ38, Aβ40 and Aβ42 levels were measured in a sandwich ELISA (Enzyme-Linked ImmunoSorbent Assay) using a combination of monoclonal antibody 6E10 (mAb 6E10) (sold by Covance® under the reference SIG-39320) and biotinylated polyclonal Aβ38, Aβ40 or Aβ42 antibodies (provided by Dr. P.D. Mehta, IBR, Staten Island, USA). […]\n(§5) The optical density was finally measured at 490 nm in a microELISA reader (sold by BioTek Instrument, reference E1 800, Gen 5 software)."}, "Aβ42 production": {"tested_on": "Aβ42 production", "experiment": "Sandwich ELISA measurement of Aβ42 levels in supernatant of treated N2a-APP695 cells", "assay_type": "cell-based, Mouse", "description": "Mouse neuroblastoma cells (N2a cells) or N2a-APP695 cells (N2a cell line stably transfected with APP695, an amyloid precursor protein) were cultured in an essential medium composed of Dulbecco's minimal essential medium (DMEM) and of OptiMEM® (1:1, v/v) (Gibco®) containing 0.2 mg/mL Geniticin (Geneticin® Selective Antibiotic, Gibco®) and 5 % fetal bovine serum (FBS, Gibco®, EU approved origin) in a humidified, 5% CO2 incubator at 37°C. Routinely, cells were split without use of Trypsin every 4/5 days. They were first rinsed with PBS (Gibco) and detached from the plate bottom using 4 mL Versene (Gibco) at room temperature for 3-4 min. 8 mL of fresh medium were added to the cell suspension, and the mix was centrifuged for 3 min at 1,000 rpm. The cell pellet was resuspended in fresh medium before seeding (1/10 dilution) in new flasks.\nThe N2a-APP695 cells were seeded at 10.000 cells/well in a 96 well plate with modified media (0.5% FBS) and incubated overnight. Cells were treated with fresh media comprising different compounds according to the invention (equal quantity of DMSO sold by Sigma®). They were then incubated for 18h in a humidified, 5% CO2 incubator.\nPurines according to the invention were added at various concentrations to N2a-APP695.\nThe plate was finally centrifuged to remove cell fragments before collecting supernatant samples for amyloids levels determination.\nThen, Aβ38, Aβ40 and Aβ42 levels were measured in a sandwich ELISA (Enzyme-Linked ImmunoSorbent Assay) using a combination of monoclonal antibody 6E10 (mAb 6E10) (sold by Covance® under the reference SIG-39320) and biotinylated polyclonal Aβ38, Aβ40 or Aβ42 antibodies (provided by Dr. P.D. Mehta, IBR, Staten Island, USA).\nA solution of 100 µl mAb 6E10 diluted in carbonate-bicarbonate buffer, pH 9.6, was coated in the wells of microtiter plates (Maxisorp™ sold by Nunc®) and incubated at 4°C overnight. The plates were then washed with PBST (PBS tablets sold by Gibco®) containing 0.05% Tween-20 (Sigma®), and blocked for 1 h with 1% BSA (Sigma®) in PBST (PBS tablets sold by Gibco®) containing 0.05 Tween-20 (Sigma®) to avoid nonspecific binding.\nFollowing a washing step, samples were added and incubated for 2 hours at room temperature (RT) and then at 4°C overnight. Plates were then washed before incubation with biotinylated polyclonal antibody diluted in PBST (PBS tablets sold by Gibco®) containing 0.05 Tween-20 (Sigma®) + 0.5% BSA at room temperature for 75 minutes.\nAfter a washing step, streptavidin-horseradish peroxidase conjugate (Streptavidin poly-HRP, Thermo Scientific Pierce®), diluted in PBS + 1% BSA, was added and incubation was carried out for 45 min at room temperature. After washing, 100 µl of o-phenylenediamine dihydrochloride (OPD tablets, Invitrogen®) diluted in citrate buffer pH 5.0 were added. The reaction was stopped after 15 min with the addition of 100 µl 1 N sulfuric acid.\nA range of known concentrations of Aβ38, Aβ40 and Aβ42, ranging from 0.01 to 10 ng/mL for Aβ38 and Aβ42, and ranging from 0.001 to 10 ng/mL for Aβ40, were use as a reference scale to determine the concentrations of Aβ38, Aβ40 and Aβ42 obtained.\nas §5\nThe EC50 of the molecules tested were thus calculated."}, "Aβ38 [3]": {"tested_on": "Aβ38", "experiment": "Sandwich ELISA measurement of Aβ38 levels in supernatant of treated N2a-APP695 cells", "assay_type": "cell-based, Mouse", "description": "as §2, §3, §4, §5"}, "N2a-APP695 cells": {"tested_on": "N2a-APP695 cells", "experiment": "MTS cell viability assay in the same wells as the ELISA", "procedure": "To measure cell viability, the MTS assay (CellTiter 96® AQueous One Solution Cell Proliferation Assay, Promega) was used in the same wells as the capture ELISA assay. 20µl of MTS reagent (3-(4,5-dimethylthiazol-2-yl)-5-(3-carboxymethoxyphenyl)-2-(4-sulfophenyl)-2H-tetrazolium) was added in each well containing 100µl of media and incubation was then proceeded for 3 hours (37°C, 5% CO2 and 95% humidity). Measurements were made on OD 490Δ630 nm (excitation and emission wavelengths) using a microELISA reader (BioTek Instrument, El 800, Gen 5 software)."}, "γ-secretases": {"tested_on": "γ-secretases", "conditions": "read-out: reported IC50 values on γ-secretases; cited from earlier work"}, "Aβ40 [4]": {"tested_on": "Aβ40", "experiment": "Effect of γ-secretase inhibitors on Aβ40 level in Aftin-treated cells", "assay_type": "cell-based", "conditions": "γ-secretase inhibitor", "description": "as §1"}, "[5]": {"conditions": "N2a-APP695 cells, 1 µM added simultaneously with increasing concentrations of Aftin-5"}, "[6]": {"conditions": "N2a-APP695 cells, 18 hours, dose-dependent, Figure 3"}}}
{"smiles": "CCN(CC)c1ccc(C)c(Nc2nc(-c3ccc(-n4cnc(C)c4)cc3)cs2)c1", "note": "['Torrey Pines' compound, reference compound]", "values": [{"measurement": "Aβ38 regulation", "setting": "Aβ38 [1]; [5]", "result": "up-regulation"}, {"measurement": "Aβ42 regulation", "setting": "Aβ42; [5]", "result": "down-regulation"}, {"measurement": "effect on Aftin-5 induced Aβ42 up-regulation and Aβ38 down-regulation", "setting": "Aβ42; N2a-APP695 cells, added 1 h prior to 100 µM Aftin-5, dose dependent, Figure 4", "result": "inhibition of Aftin-5 effect"}, {"measurement": "Aβ40 production", "setting": "Aβ40 [2]; [6]", "result": "down-regulates"}, {"measurement": "Aβ42 production", "setting": "Aβ42 production; [6]", "result": "down-regulates"}, {"measurement": "Aβ38 level", "setting": "Aβ38 [3]; [6]", "result": "up-regulation"}]}
{"smiles": "CC[C@H](CO)Nc1nc(N(C)c2ccccc2)c2ncn(C(C)C)c2n1", "note": "[Aftin-5, (2R)-2-[[9-isopropyl-6-(N-methylanilino)purin-2-yl]amino]butan-1-ol]", "values": [{"measurement": "Toxicity", "setting": "N2a-APP695 cells; MTS assay, N2a-APP695 cells, class symbol", "result": "- (\"-\" means that the tested compound is non toxic with a concentration higher than 100 µM)"}, {"measurement": "cytotoxic effects on cells", "setting": "N2a-APP695 cells; highest concentration tested (150 µM) or longest exposure (5 days)", "result": "did not show any cytotoxic effects"}, {"measurement": "levels of Aβ40, maximum increase", "setting": "Aβ40 [2]; dose-response curves, Figure 1, 18 hours", "result": "≤ 40", "unit": "%"}, {"measurement": "EC50", "setting": "Aβ42 production; Mus musculus, N2a-APP695 cells, 18h incubation, ELISA assay, read-out: EC50 (µM) at inducing Aβ42 production", "result": 10.6, "unit": "µM"}, {"measurement": "increase of the levels of Aβ42 production", "setting": "Aβ42 production; dose-response curves, Figure 1, 18 hours, up to", "result": "> 900", "unit": "%"}, {"measurement": "levels of Aβ38, decrease", "setting": "Aβ38 [3]; dose-response, in parallel to the increase of Aβ42", "result": "> 70", "unit": "%"}]}
{"smiles": "C[C@H](c1ccc(F)cc1CCCC(=O)O)N(c1cc(F)ccc1F)S(=O)(=O)c1ccc(Cl)cc1", "note": "[BMS 299897]", "values": [{"measurement": "IC50", "setting": "Aβ38 [1]", "result": 88, "unit": "nM"}, {"measurement": "IC50", "setting": "Aβ42", "result": 28.8, "unit": "nM"}, {"measurement": "IC50", "setting": "γ-secretases", "result": "8 to 300", "unit": "nM"}, {"measurement": "IC50", "setting": "Aβ40 [4]", "result": 55.9, "unit": "nM"}]}
{"smiles": "C[C@H](NC(=O)Cc1cc(F)cc(F)c1)C(=O)N[C@H](C(=O)OC(C)(C)C)c1ccccc1", "note": "[DAPT]", "values": [{"measurement": "IC50", "setting": "Aβ38 [1]", "result": 112, "unit": "nM"}, {"measurement": "IC50", "setting": "Aβ42", "result": 42.5, "unit": "nM"}, {"measurement": "IC50", "setting": "γ-secretases", "result": "25 to 56", "unit": "nM"}, {"measurement": "IC50", "setting": "Aβ40 [4]", "result": 61.8, "unit": "nM"}]}
